Common to all, as to assay: HotSpot kinase profiling
Holding throughout (format): biochemical

One assay has as its target T1, NEK11 (Homo sapiens, UniProt Q8NG66).
T1 construct: purchased Reaction Biology Corp
T1 sequence (Q8NG66 1-645): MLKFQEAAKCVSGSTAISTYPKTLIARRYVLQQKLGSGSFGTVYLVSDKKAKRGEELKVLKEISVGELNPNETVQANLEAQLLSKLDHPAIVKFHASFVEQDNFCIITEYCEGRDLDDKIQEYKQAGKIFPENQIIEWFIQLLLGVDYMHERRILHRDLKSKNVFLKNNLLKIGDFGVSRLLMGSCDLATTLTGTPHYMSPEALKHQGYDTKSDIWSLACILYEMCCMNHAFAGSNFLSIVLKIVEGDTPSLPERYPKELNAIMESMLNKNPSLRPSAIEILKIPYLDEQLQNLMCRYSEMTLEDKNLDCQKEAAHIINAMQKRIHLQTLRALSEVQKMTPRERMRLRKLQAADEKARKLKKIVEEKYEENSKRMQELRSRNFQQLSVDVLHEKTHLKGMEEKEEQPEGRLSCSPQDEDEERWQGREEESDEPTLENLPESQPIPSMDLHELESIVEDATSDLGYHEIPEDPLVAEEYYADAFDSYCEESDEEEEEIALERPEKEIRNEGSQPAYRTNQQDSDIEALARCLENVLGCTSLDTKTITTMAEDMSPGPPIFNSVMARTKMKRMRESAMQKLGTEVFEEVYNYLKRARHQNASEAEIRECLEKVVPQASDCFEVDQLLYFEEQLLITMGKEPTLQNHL
The protocol: (§1) The binding assay system for profiling kinase activity were based upon HotSpot technology (Reaction Biology Corp.; Malvern, Pa., USA) and utilized radio-isotope-based P81 filtration. […] Substrates for the various kinases tested against Compound 2 (substrate information available on the Reaction Biology Corp. website) were prepared fresh daily in Reaction Buffer. Any required cofactors were then added to the substrate solution. The identification and selection of the appropriate cofactor for each kinase is within the ability of a person skilled in the art. See, for example, Handbook of Assay Development in Drug Discovery, Ed. Lisa K. Minor, 2006: CRC Press, Boca Raton, Fla.; Gao et al., “A broad activity screen in support of a chemogenomic map for kinase signalling research and drug discovery,” Biochem J. 2013, 451(2): 313-28; and Eglen et al., “Drug discovery and the human kinome: Recent trends,” Pharmacology & Therapeutics 2011, 130(2): 144-156. The kinase was then added to the substrate solution and gently mixed. […] This was followed by incubation at room temperature for 2 h. The reaction was terminated and any unreacted phosphate was washed away using 0.1% phosphoric acid prior to detection utilizing a proprietary technology. […] DMSO was used as the negative control.
(§2) Percent inhibition was expressed as an average where the assay was performed more than once, e.g., in duplicate.

The target of a further assay is T2, PKG2/PRKG2 (Homo sapiens, UniProt Q13237).
T2 construct: purchased Reaction Biology Corp
T2 sequence (Q13237 1-762): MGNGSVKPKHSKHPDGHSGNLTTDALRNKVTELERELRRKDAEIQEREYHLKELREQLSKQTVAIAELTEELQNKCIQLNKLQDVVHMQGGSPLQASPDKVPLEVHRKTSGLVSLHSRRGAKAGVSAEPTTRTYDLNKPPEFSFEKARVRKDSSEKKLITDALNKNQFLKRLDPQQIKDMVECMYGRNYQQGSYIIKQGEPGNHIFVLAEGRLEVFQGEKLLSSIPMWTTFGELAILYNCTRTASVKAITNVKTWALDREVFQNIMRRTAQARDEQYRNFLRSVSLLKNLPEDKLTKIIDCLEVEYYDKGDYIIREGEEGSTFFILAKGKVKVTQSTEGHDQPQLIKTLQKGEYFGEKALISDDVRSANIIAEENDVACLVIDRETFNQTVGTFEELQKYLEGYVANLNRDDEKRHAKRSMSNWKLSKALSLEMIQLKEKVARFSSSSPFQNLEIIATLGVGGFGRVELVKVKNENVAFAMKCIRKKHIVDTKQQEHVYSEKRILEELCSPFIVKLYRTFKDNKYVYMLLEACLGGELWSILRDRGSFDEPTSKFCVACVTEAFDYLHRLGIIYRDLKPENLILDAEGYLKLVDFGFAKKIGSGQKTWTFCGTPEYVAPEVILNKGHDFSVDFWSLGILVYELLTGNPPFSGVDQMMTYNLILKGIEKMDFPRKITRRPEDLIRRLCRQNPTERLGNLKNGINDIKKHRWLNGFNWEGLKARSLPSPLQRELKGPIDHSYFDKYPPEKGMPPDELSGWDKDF
The protocol:
as §1, §2

Another assay concerns the target T3, MARK1 (Homo sapiens, UniProt Q9P0L2).
T3 construct: purchased Reaction Biology Corp
The protocol:
as §1, §2

The target in a further assay is T4, LOK/STK10 (Homo sapiens, UniProt O94804).
T4 construct: purchased Reaction Biology Corp
The protocol: as §1, §2

Another assay concerns the target T5, MEKK3 (Homo sapiens, UniProt Q99759).
T5 construct: purchased Reaction Biology Corp
T5 sequence (Q99759 1-626): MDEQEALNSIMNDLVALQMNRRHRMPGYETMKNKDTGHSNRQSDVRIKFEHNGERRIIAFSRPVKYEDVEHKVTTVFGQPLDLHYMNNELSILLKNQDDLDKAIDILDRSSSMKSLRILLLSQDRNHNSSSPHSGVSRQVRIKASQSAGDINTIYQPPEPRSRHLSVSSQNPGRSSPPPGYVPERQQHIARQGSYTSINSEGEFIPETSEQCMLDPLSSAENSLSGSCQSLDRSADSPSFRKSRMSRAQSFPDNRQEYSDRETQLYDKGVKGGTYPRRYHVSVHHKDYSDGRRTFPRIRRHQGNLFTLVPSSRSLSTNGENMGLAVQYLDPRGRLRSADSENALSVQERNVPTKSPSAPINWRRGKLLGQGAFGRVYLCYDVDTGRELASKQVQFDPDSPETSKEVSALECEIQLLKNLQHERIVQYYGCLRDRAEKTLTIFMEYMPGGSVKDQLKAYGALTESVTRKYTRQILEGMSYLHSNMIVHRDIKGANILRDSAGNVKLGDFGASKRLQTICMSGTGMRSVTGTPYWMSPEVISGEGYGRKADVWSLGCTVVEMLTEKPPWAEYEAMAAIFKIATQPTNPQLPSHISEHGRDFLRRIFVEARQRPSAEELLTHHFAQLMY
The protocol:
as §1, §2

The mark [1] stands for this setting: read-out: % Enzyme Activity (relative to DMSO controls) Run 1.
Setting [2] is: read-out: % Enzyme Activity (relative to DMSO controls) Run 2.

SMILES strings stand for the structures. Read-outs that look alike come from different tables or passages of the source.

Here are results for 1 compound from US9492471B2, “Methods of treating a disease or disorder associated with Bruton'S Tyrosine Kinase” (Celgene Avilomics Research, Inc., priority 2013, dated 2016).

T4 sequence (O94804 whole entry): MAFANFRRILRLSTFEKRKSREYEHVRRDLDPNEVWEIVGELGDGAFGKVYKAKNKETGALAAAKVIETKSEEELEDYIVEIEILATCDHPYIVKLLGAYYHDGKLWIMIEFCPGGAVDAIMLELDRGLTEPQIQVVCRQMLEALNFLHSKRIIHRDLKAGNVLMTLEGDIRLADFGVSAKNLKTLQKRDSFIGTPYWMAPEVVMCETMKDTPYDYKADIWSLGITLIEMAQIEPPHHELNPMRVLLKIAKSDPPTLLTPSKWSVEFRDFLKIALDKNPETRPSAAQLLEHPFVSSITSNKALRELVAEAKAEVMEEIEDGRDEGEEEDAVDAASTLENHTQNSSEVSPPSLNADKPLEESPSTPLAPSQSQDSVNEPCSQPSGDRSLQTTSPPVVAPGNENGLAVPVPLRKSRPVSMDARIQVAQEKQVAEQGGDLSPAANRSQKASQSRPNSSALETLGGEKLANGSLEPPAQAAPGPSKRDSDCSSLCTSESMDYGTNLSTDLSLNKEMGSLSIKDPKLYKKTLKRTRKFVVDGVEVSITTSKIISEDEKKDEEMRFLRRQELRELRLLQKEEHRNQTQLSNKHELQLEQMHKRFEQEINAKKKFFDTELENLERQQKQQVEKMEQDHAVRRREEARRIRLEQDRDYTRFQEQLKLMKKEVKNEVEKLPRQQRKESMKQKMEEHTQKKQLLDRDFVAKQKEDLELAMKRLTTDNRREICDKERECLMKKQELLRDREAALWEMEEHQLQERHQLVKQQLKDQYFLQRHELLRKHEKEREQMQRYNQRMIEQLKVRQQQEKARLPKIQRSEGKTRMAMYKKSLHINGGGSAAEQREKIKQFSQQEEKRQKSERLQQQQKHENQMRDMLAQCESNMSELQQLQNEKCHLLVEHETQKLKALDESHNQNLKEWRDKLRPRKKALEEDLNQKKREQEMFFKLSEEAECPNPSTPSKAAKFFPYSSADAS
T3 sequence (Q9P0L2 whole entry): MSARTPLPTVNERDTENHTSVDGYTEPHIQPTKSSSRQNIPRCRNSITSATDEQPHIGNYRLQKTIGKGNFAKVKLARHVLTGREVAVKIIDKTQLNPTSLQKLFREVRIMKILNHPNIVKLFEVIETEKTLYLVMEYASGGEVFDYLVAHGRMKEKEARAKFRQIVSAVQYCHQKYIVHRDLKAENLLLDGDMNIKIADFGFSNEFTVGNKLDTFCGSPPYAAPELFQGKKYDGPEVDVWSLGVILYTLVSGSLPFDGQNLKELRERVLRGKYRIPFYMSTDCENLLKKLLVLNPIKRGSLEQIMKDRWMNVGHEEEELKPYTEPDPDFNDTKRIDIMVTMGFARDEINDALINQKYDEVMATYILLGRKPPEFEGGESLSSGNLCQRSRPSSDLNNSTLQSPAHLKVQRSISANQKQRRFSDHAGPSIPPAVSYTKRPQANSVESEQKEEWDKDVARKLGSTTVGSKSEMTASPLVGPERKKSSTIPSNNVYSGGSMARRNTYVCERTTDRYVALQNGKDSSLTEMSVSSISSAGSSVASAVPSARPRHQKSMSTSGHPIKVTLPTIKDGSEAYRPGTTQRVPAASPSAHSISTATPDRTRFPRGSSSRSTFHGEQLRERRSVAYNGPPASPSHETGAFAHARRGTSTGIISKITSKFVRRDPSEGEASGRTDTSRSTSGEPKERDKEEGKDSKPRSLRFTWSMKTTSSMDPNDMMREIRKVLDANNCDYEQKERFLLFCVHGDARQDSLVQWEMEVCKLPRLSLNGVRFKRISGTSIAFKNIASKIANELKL

Turning to `C=CC(=O)Nc1cccc(Nc2nc(Nc3ccc(OCCOC)c(F)c3)ncc2F)c1` [Compound 2], the inhibition (usually the change of the read-out against control, counted positive when it falls) at 3 µM against NEK11 was 7.32%; against PKG2/PRKG2, 14.2%; against MARK1 it was 5.86%; against LOK/STK10, 56.9%; against MEKK3, -4.03%. The remaining activity at 3 µM worked out at 92.5% on NEK11 (setting [1]); 92.8% on NEK11 (setting [2]); 87.2% on PKG2/PRKG2 (setting [1]); 84.5% at PKG2/PRKG2 (setting [2]); 90.9% on MARK1 (setting [1]); 97.3% on MARK1 (setting [2]). The remaining activity at 3 µM amounted to 43.1% on LOK/STK10 (setting [1]), 43% on LOK/STK10 (setting [2]), 102% on MEKK3 (setting [1]) and 106% at MEKK3 (setting [2]).
